We go through eleven compounds from patent US20060074108A1, “Matrix metalloprotease (MMP) inhibitors and their application in cosmetic and pharmaceutical composition” (Bioderm Research, priority 2004, published 2006).

In one test the test system is TRP-2. Nature of the test: tyrosinase enzyme based model: inhibition of color formation from the action of TRP-2 on tyrosine, spectrophotometric rate kinetics. It is filed as biochemical. The following applies: TRP-2 model extended as predictive to MMP-2 and MMP-9 inhibition, wound healing application. The source says: It is based on the inhibition of a tyrosinase enzyme based model system, for example Canters et al., “Kinetic and paramagnetic NMR investigations of the inhibition of Streptomyces antibioticus tyosinase”, Journal of Molecular Catalysis, B: Enzymatics, vol. 8, 27-35 (2000). Tyrosinase is a copper-based monooxygenase enzyme that catalyzes the hydroxylation of monophenols (hydroxybenzenes) and the oxidation of ortho-diphenols to ortho-quinones. The active-site of tyrosinase is known to contain two copper ions (CuA and CuB). […] The regions around these copper-binding ligands are well conserved. Moreover, the distance between these two copper ions is […] [(van Amsterdam et al., Angewandte Chemie, 42: 62-64 (2003); Bubacco et al., J. Biol. Chem., 181-194 (2003)]. At least two proteins related to tyrosinase are known to exist in mammals, and include TRP-1, which is responsible for the conversion of 5,6-dihydroxyindole-2-carboxylic acid (DHICA) to indole-5,6-quinone-2-carboxylic acid (IQCA) or indole-5,6-quinone (IQ); and TRP-2, which is the melanogenic enzyme DOPAchrome tautomerase that catalyzes the conversion of DOPAchrome to DHICA. TRP-2 differs from tyrosinases and TRP-1 in that it binds two zinc ions instead of copper. Other proteins that belong to this family are plant polyphenol oxidases (PPO), which catalyze the oxidation of mono- and ortho-diphenols to ortho-diquinone. […] The colorless tyrosine is converted into yellow/orange colored ortho-diquinone of tyrosine, which is spectrophotometrically quantitated and its rate kinetics thus established.

A further test concerns the target MMP-13 (Homo sapiens, UniProt P45452). As to conditions: in words; cited from earlier work.
For the next test, the target named is T1, MMP-1 (Homo sapiens, UniProt P03956).
T1 sequence (P03956 100-469): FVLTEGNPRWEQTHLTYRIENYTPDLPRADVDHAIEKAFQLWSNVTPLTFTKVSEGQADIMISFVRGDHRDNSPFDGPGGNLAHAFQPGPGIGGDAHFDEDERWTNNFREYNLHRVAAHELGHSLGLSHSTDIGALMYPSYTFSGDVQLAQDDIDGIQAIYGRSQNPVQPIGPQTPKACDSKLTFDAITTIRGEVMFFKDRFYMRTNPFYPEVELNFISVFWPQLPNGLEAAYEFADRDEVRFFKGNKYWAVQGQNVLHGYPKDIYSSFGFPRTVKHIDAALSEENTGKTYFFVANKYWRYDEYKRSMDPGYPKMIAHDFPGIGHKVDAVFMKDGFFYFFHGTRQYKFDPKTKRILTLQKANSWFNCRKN
The following applies: in words; cited from earlier work.

The target in another test is MMP-9 (Homo sapiens, UniProt P14780). As to conditions: in words; cited from earlier work.

SMILES strings stand for the structures.

MMP-9, sequence (P14780 94-707, species assumed): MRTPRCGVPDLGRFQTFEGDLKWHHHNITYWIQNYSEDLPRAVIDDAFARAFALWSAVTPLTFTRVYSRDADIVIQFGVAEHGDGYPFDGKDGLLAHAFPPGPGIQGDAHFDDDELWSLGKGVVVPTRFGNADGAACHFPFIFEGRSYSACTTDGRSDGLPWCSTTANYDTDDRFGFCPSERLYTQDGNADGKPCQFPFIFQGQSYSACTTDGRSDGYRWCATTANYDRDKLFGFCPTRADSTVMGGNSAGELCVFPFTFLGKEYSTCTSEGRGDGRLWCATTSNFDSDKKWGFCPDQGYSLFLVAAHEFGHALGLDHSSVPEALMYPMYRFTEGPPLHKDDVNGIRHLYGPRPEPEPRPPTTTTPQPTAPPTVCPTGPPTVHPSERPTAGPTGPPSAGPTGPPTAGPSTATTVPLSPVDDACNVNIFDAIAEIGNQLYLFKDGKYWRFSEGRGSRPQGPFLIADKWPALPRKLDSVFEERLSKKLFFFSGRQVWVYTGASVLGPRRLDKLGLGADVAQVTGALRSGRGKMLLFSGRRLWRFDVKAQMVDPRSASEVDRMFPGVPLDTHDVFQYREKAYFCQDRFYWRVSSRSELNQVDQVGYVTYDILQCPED

With `CC(=NO)c1ccc(O)cc1O` [2,4-Dihydroxyacetophenone Oxime], the “order of efficacy (oxime derivatives)” value with TRP-2 was 2,5-Dihydroxyacetophenone Oxime>2,4-Dihydroxyacetophenone Oxime>2-Hydroxy-4-methoxyaceophenone Oxime.
Take `CC(=O)c1ccc(O)cc1O` [2,4-Dihydroxyacetophenone]: in the test with TRP-2, the “order of efficacy (acetophenones)” value is 2,5-Dihydroxyacetophenone>2,4-Dihydroxyacetophenone>2-Hydroxy-4-methoxyaceophenone.
On to `CC(=NO)c1cc(O)ccc1O` [2,5-Dihydroxyacetophenone Oxime], for which, in the test on TRP-2, the “order of efficacy (oxime derivatives)” value is recorded as 2,6-Dihydroxyacetophenone Oxime>2,5-Dihydroxyacetophenone Oxime>2,4-Dihydroxyacetophenone Oxime.
As for `CC(=O)c1cc(O)ccc1O` [2,5-Dihydroxyacetophenone], in the test with TRP-2, the “order of efficacy (acetophenones)” value is listed as 2,6-Dihydroxyacetophenone>2,5-Dihydroxyacetophenone>2,4-Dihydroxyacetophenone.
`CC(=NO)c1c(O)cccc1O` [2,6-Dihydroxyacetophenone Oxime]: the “order of efficacy (oxime derivatives)” value in the test on TRP-2 is 2,6-Dihydroxyacetophenone Oxime>2,5-Dihydroxyacetophenone Oxime.
Consider `CC(=O)c1c(O)cccc1O` [2,6-Dihydroxyacetophenone], for which, in the test on TRP-2, the “order of efficacy (acetophenones)” value is 2,6-Dihydroxyacetophenone>2,5-Dihydroxyacetophenone.
On to `COc1ccc(C(C)=NO)c(O)c1` [2-Hydroxy-4-methoxyaceophenone Oxime], for which the “order of efficacy (oxime derivatives)” value in the test with TRP-2 is 2,4-Dihydroxyacetophenone Oxime>2-Hydroxy-4-methoxyaceophenone Oxime.
For `COc1ccc(C(C)=O)c(O)c1` [2-Hydroxy-4-methoxyaceophenone], the “order of efficacy (acetophenones)” value with TRP-2 was 2,4-Dihydroxyacetophenone>2-Hydroxy-4-methoxyaceophenone >>>Arbutin.
Regarding `OC[C@H]1O[C@@H](Oc2ccc(O)cc2)[C@H](O)[C@@H](O)[C@@H]1O` [Arbutin, reference compound], the “order of efficacy (acetophenones)” value with TRP-2 is reported as 2-Hydroxy-4-methoxyaceophenone >>>Arbutin.
On to `O=C(NCCCCN1CCOCC1)c1cc2ccccc2o1` [CL-82198], for which the “inhibition of MMP-13” value on MMP-13 was “weak inhibition”. Moreover, the “activity against MMP-1” value on MMP-1 is on record as “complete lack of activity”. The “activity against MMP-9” value on MMP-9 is on record as “complete lack of activity”.
For `Cc1cc(C)c(N(Cc2ccccc2)S(=O)(=O)c2ccc(OCCNC(=O)c3cc4ccccc4o3)cc2)c(C(=O)NO)c1` [WAY-170523], the “inhibition of MMP-13” value on MMP-13 is on record as “potent”.
